From patent publication US20160152540A1, “NEW PROCESS FOR THE MAINTAINING OF A RATIO OF ISOMERS OF CAROTENOID COMPOUNDS” (DSM IP ASSETS B.V., priority 2013, published 2016)

Assay: Stability of the astaxanthin stereoisomer ratio (all-E form) in chloroform at 40° C., measured spectrophotometrically at 478 nm
Conditions: tempered at 40° C., stored, sampled periodically
Description: The solution was homogenized and the formulation was tempered at 40° C. The solution was stored and samples were taken periodically and the concentration of astaxanthin was measured spectrophotometrically at 478 nm.

SMILES | stabilisation of the all-E-form / ratio of stereoisomers of astaxanthin (FIG. 1 and FIG. 2)
CC1=C(/C=C/C(C)=C/C=C/C(C)=C/C=C/C=C(C)/C=C/C=C(C)/C=C/C2=C(C)C(=O)[C@@H](O)CC2(C)C)C(C)(C)C[C@H](O)C1=O [astaxanthin] | the ratio is deteriorating usually
CC(=O)[O-].[K+] [CH3COOK, potassium acetate] | stabilises the all-E-form better than K2CO3
